Source: patent US20100234390A1, “NOVEL COMPOUND AND THEIR USE” (priority 2007, published 2010)
≈ marks a conversion by molar mass, not a printed value.

Experiments:
Test in all cases: Agar dilution MIC
Conditions in all cases: 16-20 hours
E. faecalis MRO 04205 = assay type: cell-based, Enterococcus faecalis
Method: (§1) Briefly, the compounds of invention were weighed, dissolved in dimethyl sulfoxide, serially two fold diluted in the same solvent and then incorporated into molten Mueller Hinton Agar (MHA) in a petridish just before solidification, with each petridish containing a different concentration of a compound.
(§2) The bacterial inoculum was prepared by picking 3 to 5 well isolated bacterial colonies with the same morphological appearance from an 18-24 hours old culture with an inoculating loop, transferring the growth to a tube containing 3 mL of normal saline and adjusting the turbidity of the saline suspension to 0.5 Mc Farland Turbidity Standard equivalent to a bacterial population of 1.5×10^8 colony forming units (CFU) per mL of suspension. The suspension was diluted 1:10 in saline (i.e. 0.5 mL suspension 4.5 mL saline) to get a bacterial population of 1.5×10^7 CFU/mL as inoculum.
(§3) The inoculated petridishes were incubated at 35° C. in an ambient atmosphere for 16-20 hours.

E. faecalis ATCC 51299 = assay type: cell-based, Enterococcus faecalis
Method: as §1, §2, §3

E. faecalis MRO 04035 = assay type: cell-based, Enterococcus faecalis
Method: as §1, §2, §3

E. faecalis ATCC 29212 = assay type: cell-based, Enterococcus faecalis
Method: as §1, §2, §3

E. faecalis MRO 04050 = assay type: cell-based, Enterococcus faecalis
Method: as §1, §2, §3

S. epidermidis MRO 02045 = assay type: cell-based
Method: as §1, §2, §3

[1] = test system: S. saprophyticus MRO 02003; assay type: cell-based
Method: as §1, §2, §3

S. epidermidis MRO 02095 = assay type: cell-based
Method: as §1, §2, §3

S. epidermidis MRO 02002 = assay type: cell-based
Method: as §1, §2, §3

[2] = test system: S. epidermidis MRO 002046; assay type: cell-based
Method: as §1, §2, §3

[3] = test system: S. haemolyticus MRO 02064; assay type: cell-based
Method: as §1, §2, §3

[4] = test system: M. catarrhalis ATCC 43628; assay type: cell-based, Moraxella catarrhalis
Method: as §1, §2, §3

[5] = test system: M. catarrhalis ATCC 43617; assay type: cell-based, Moraxella catarrhalis
Method: as §1, §2, §3

[6] = test system: M. catarrhalis ATCC 43627; assay type: cell-based, Moraxella catarrhalis
Method: as §1, §2, §3

E. faecium MRO 04038 = assay type: cell-based, Enterococcus faecium
Method: as §1, §2, §3

E. faecium MRO 04037 = assay type: cell-based, Enterococcus faecium
Method: as §1, §2, §3

E. faecium MRO 04198 = assay type: cell-based, Enterococcus faecium
Method: as §1, §2, §3

E. faecium ATCC 700221 = assay type: cell-based, Enterococcus faecium
Method: as §1, §2, §3

S. aureus MRO 00013 = assay type: cell-based, Staphylococcus aureus
Method: as §1, §2, §3

S. aureus MRO 00059 = assay type: cell-based, Staphylococcus aureus
Method: as §1, §2, §3

S. aureus MRO 0003 = assay type: cell-based, Staphylococcus aureus
Method: as §1, §2, §3

S. aureus MRO 00030 = assay type: cell-based, Staphylococcus aureus
Method: as §1, §2, §3

S. aureus MRO 0001 = assay type: cell-based, Staphylococcus aureus
Method: as §1, §2, §3

S. aureus ATCC 43300 = assay type: cell-based, Staphylococcus aureus
Method: as §1, §2, §3

S. aureus MRO 00055 = assay type: cell-based, Staphylococcus aureus
Method: as §1, §2, §3

S. aureus MRO 00048 = assay type: cell-based, Staphylococcus aureus
Method: as §1, §2, §3

S. aureus MRO 002053 = assay type: cell-based, Staphylococcus aureus
Method: as §1, §2, §3

S. aureus ATCC 29213 = assay type: cell-based, Staphylococcus aureus
Method: as §1, §2, §3

COC(=S)NC[C@H]1CN(c2ccc(N3CCN(C(=O)Cn4cnnn4)CC3)c(F)c2)C(=O)O1 [Example 72, (S)—O-Methyl (3-(4-(4-(2-(1H-tetrazol-1-yl)acetyl)piperazin-1-yl)-3-fluorophenyl)-2-oxooxazolidin-5-yl)methylcarbamothioate]
MIC (E. faecalis MRO 04205; Enterococcus faecalis, MRO04205, 35° C., read-out: Antimicrobial Screening (MIC)): 0.5 µg/mL (≈ 1.04 µM) | MIC (E. faecalis ATCC 51299; Enterococcus faecalis, ATCC51299, 35° C., read-out: Antimicrobial Screening (MIC)): 0.5 µg/mL (≈ 1.04 µM) | MIC (E. faecalis MRO 04035; Enterococcus faecalis, MRO04035, 35° C., read-out: Antimicrobial Screening (MIC)): 0.5 µg/mL (≈ 1.04 µM) | MIC (E. faecalis ATCC 29212; Enterococcus faecalis, ATCC29212, 35° C., read-out: Antimicrobial Screening (MIC)): 0.5 µg/mL (≈ 1.04 µM) | MIC (E. faecalis MRO 04050; Enterococcus faecalis, MRO04050, 35° C., read-out: Antimicrobial Screening (MIC)): 0.5 µg/mL (≈ 1.04 µM) | MIC (S. epidermidis MRO 02045; Staphylococcus epidermidis, MRO02045, 35° C., read-out: Antimicrobial Screening (MIC)): 0.5 µg/mL (≈ 1.04 µM) | MIC ([1]; Staphylococcus saprophyticus, MRO02003, 35° C., read-out: Antimicrobial Screening (MIC)): 1 µg/mL (≈ 2.09 µM) | MIC (S. epidermidis MRO 02095; Staphylococcus epidermidis, MRO02095, 35° C., read-out: Antimicrobial Screening (MIC)): 0.5 µg/mL (≈ 1.04 µM) | MIC (S. epidermidis MRO 02002; Staphylococcus epidermidis, MRO02002, 35° C., read-out: Antimicrobial Screening (MIC)): 0.5 µg/mL (≈ 1.04 µM) | MIC ([2]; Staphylococcus epidermidis, MRO002046, 35° C., read-out: Antimicrobial Screening (MIC)): 0.5 µg/mL (≈ 1.04 µM) | MIC ([3]; Staphylococcus haemolyticus, MRO02064, 35° C., read-out: Antimicrobial Screening (MIC)): 0.5 µg/mL (≈ 1.04 µM) | MIC ([4]; Moraxella catarrhalis, ATCC43628, 35° C., read-out: Antimicrobial Screening (MIC)): 2 µg/mL (≈ 4.18 µM) | MIC ([5]; Moraxella catarrhalis, ATCC43617, 35° C., read-out: Antimicrobial Screening (MIC)): 2 µg/mL (≈ 4.18 µM) | MIC ([6]; Moraxella catarrhalis, ATCC43627, 35° C., read-out: Antimicrobial Screening (MIC)): 2 µg/mL (≈ 4.18 µM) | MIC (E. faecium MRO 04038; Enterococcus faecium, MRO04038, 35° C., read-out: Antimicrobial Screening (MIC)): 0.5 µg/mL (≈ 1.04 µM) | MIC (E. faecium MRO 04037; Enterococcus faecium, MRO04037, 35° C., read-out: Antimicrobial Screening (MIC)): 0.5 µg/mL (≈ 1.04 µM) | MIC (E. faecium MRO 04198; Enterococcus faecium, MRO04198, 35° C., read-out: Antimicrobial Screening (MIC)): 0.5 µg/mL (≈ 1.04 µM) | MIC (E. faecium ATCC 700221; Enterococcus faecium, ATCC700221, 35° C., read-out: Antimicrobial Screening (MIC)): 0.5 µg/mL (≈ 1.04 µM) | MIC (S. aureus MRO 00013; Staphylococcus aureus, MRO00013, 35° C., read-out: Antimicrobial Screening (MIC)): 1 µg/mL (≈ 2.09 µM) | MIC (S. aureus MRO 00059; Staphylococcus aureus, MRO00059, 35° C., read-out: Antimicrobial Screening (MIC)): 0.5 µg/mL (≈ 1.04 µM) | MIC (S. aureus MRO 0003; Staphylococcus aureus, MRO0003, 35° C., read-out: Antimicrobial Screening (MIC)): 1 µg/mL (≈ 2.09 µM) | MIC (S. aureus MRO 00030; Staphylococcus aureus, MRO00030, 35° C., read-out: Antimicrobial Screening (MIC)): 0.5 µg/mL (≈ 1.04 µM) | MIC (S. aureus MRO 0001; Staphylococcus aureus, MRO0001, 35° C., read-out: Antimicrobial Screening (MIC)): 0.5 µg/mL (≈ 1.04 µM) | MIC (S. aureus ATCC 43300; Staphylococcus aureus, ATCC43300, 35° C., read-out: Antimicrobial Screening (MIC)): 1 µg/mL (≈ 2.09 µM) | MIC (S. aureus MRO 00055; Staphylococcus aureus, MRO00055, 35° C., read-out: Antimicrobial Screening (MIC)): 1 µg/mL (≈ 2.09 µM) | MIC (S. aureus MRO 00048; Staphylococcus aureus, MRO00048, 35° C., read-out: Antimicrobial Screening (MIC)): 0.5 µg/mL (≈ 1.04 µM) | MIC (S. aureus MRO 002053; Staphylococcus aureus, MRO002053, 35° C., read-out: Antimicrobial Screening (MIC)): 0.5 µg/mL (≈ 1.04 µM) | MIC (S. aureus ATCC 29213; Staphylococcus aureus, ATCC29213, 35° C., read-out: Antimicrobial Screening (MIC)): 1 µg/mL (≈ 2.09 µM)

COC(=S)NC[C@H]1CN(c2ccc(N3CCN(C(=O)c4ccc([N+](=O)[O-])o4)CC3)c(F)c2)C(=O)O1 [Example 7, (S)—O-Methyl(3-(3-fluoro-4-(4-(5-nitrofuran-2-carbonyl)piperazin-1-yl)phenyl)-2-oxooxazolidin-5-yl)methylcarbamothioate]
Antimicrobial Screening (MIC) (E. faecalis MRO 04205; 35° C.): 0.125 µg/mL | Antimicrobial Screening (MIC) (E. faecalis ATCC 51299; 35° C.): 0.125 µg/mL | Antimicrobial Screening (MIC) (E. faecalis MRO 04035; 35° C.): 0.125 µg/mL | Antimicrobial Screening (MIC) (E. faecalis ATCC 29212; 35° C.): 0.125 µg/mL | Antimicrobial Screening (MIC) (E. faecalis MRO 04050; 35° C.): 0.125 µg/mL | Antimicrobial Screening (MIC) (S. epidermidis MRO 02045; 35° C.): 0.125 µg/mL | Antimicrobial Screening (MIC) ([1]; 35° C.): 0.125 µg/mL | Antimicrobial Screening (MIC) (S. epidermidis MRO 02095; 35° C.): 0.03 µg/mL | Antimicrobial Screening (MIC) (S. epidermidis MRO 02002; 35° C.): 0.03 µg/mL | Antimicrobial Screening (MIC) ([2]; 35° C.): 0.03 µg/mL | Antimicrobial Screening (MIC) ([3]; 35° C.): 0.125 µg/mL | Antimicrobial Screening (MIC) ([4]; 35° C.): 0.25 µg/mL | Antimicrobial Screening (MIC) ([5]; 35° C.): 0.25 µg/mL | Antimicrobial Screening (MIC) ([6]; 35° C.): 0.25 µg/mL | Antimicrobial Screening (MIC) (E. faecium MRO 04038; 35° C.): 0.125 µg/mL | Antimicrobial Screening (MIC) (E. faecium MRO 04037; 35° C.): 0.25 µg/mL | Antimicrobial Screening (MIC) (E. faecium MRO 04198; 35° C.): 0.25 µg/mL | Antimicrobial Screening (MIC) (E. faecium ATCC 700221; 35° C.): 0.125 µg/mL | Antimicrobial Screening (MIC) (S. aureus MRO 00013; 35° C.): 0.25 µg/mL | Antimicrobial Screening (MIC) (S. aureus MRO 00059; 35° C.): 0.25 µg/mL | Antimicrobial Screening (MIC) (S. aureus MRO 0003; 35° C.): 0.25 µg/mL | Antimicrobial Screening (MIC) (S. aureus MRO 00030; 35° C.): 0.125 µg/mL | Antimicrobial Screening (MIC) (S. aureus MRO 0001; 35° C.): 0.125 µg/mL | Antimicrobial Screening (MIC) (S. aureus ATCC 43300; 35° C.): 0.125 µg/mL | Antimicrobial Screening (MIC) (S. aureus MRO 00055; 35° C.): 0.25 µg/mL | Antimicrobial Screening (MIC) (S. aureus MRO 00048; 35° C.): 0.125 µg/mL | Antimicrobial Screening (MIC) (S. aureus MRO 002053; 35° C.): 0.06 µg/mL | Antimicrobial Screening (MIC) (S. aureus ATCC 29213; 35° C.): 0.125 µg/mL
